This is an account of results in patent publication US20220411388A1, “SUBSTITUTED IMIDAZOLE CARBOXAMIDES AND THEIR USE IN THE TREATMENT OF MEDICAL DISORDERS” (Bial - R&D Investments, S.A., priority 2019, published 2022).

Molecules are shown by their SMILES. In brackets after ≈: the same amount, converted by molar mass. Where only a bound is given, the exact number is not on record here.

Series [1] deals with T1, acid ceramidase (hACR) (Homo sapiens, UniProt Q13510).
T1 construct: expressed in transfected cells
T1 sequence (Q13510 22-395): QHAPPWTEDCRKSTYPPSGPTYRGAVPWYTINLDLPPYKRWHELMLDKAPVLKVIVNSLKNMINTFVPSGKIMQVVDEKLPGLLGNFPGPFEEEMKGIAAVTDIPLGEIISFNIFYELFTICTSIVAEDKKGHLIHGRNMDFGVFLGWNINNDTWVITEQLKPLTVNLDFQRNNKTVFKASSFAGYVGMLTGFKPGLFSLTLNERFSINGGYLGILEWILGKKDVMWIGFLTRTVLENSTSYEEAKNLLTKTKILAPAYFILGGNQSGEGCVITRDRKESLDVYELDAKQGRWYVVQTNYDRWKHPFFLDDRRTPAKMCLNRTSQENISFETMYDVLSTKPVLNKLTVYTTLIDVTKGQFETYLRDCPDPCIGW
Put plainly: Acid ceramidase inhibition, biochemical fluorescent assay with cell lysates overexpressing acid ceramidase (substrate Rbm14-12). The note with it: cell lysate, 1 hr preincubation at RT, pH 4.5, Rbm14-12 6.3 μM; read-out: IC50 hACR. The method, then:
The ability of exemplary compounds to inhibit acid ceramidase was measured.
Cell lysates overexpressing acid ceramidase were used as the enzyme source for compound potency determination in a biochemical fluorescent assay. Briefly, compounds were preincubated with 10 μg protein of cell lysates in a dose-response manner for 1 hr at RT in the assay buffer containing 25 mM NaAC and 100 mM NaCl, pH 4.5. […] The samples were incubated with the stopping buffer at RT for 1 hr to allow the fluorescent product to be formed. […] Data were collected and used to determine the IC50 values of compounds by curve fitting to the four-parameter inhibition equation.

Series [2] can be described thus: Compound solubility in water. Type of series: physicochemical.

Regarding `O=C(NCCC1(C(F)(F)F)CC1)n1cnc(-c2ccccc2)c1` [Example 25, 4-Phenyl-N-(2-(1-(trifluoromethyl)cyclopropyl)ethyl)-1H-imidazole-1-carboxamide], the IC50 – broadly, the concentration at which inhibition is half-maximal – in series [1] is less than 200 nM. Further, the solubility (usually the dissolved amount per volume that the medium holds) in series [2] turned out to be 0.8 µg/mL (≈ 2.47 µM).

Take `COc1nc(Br)cn1C(=O)NCCCC(F)(F)F` [Example 184, 4-Bromo-2-methoxy-N-(4,4,4-trifluorobutyl)-1H-imidazole-1-carboxamide]: the IC50 in series [1] was less than 200 nM. The compound further registered a solubility in series [2] of 31 µg/mL (≈ 93.9 µM).

With `CC(C)CCNC(=O)n1cnc(-c2ccccn2)c1` [Example 46, N-iso-Pentyl-4-(pyridin-2-yl)-1H-imidazole-1-carboxamide], the IC50 in series [1] was in the range of 200 to 1000 nM. The solubility in series [2] worked out at 13.8 µg/mL (≈ 53.4 µM).

Regarding `COc1ccc(-c2cn(C(=O)NCCc3ccccc3)cn2)cn1` [Example 31, 4-(6-Methoxypyridin-3-yi)-N-phenethyl-1H-imidazole-1-carboxamide], the IC50 in series [1] was less than 200 nM. The compound also had a solubility in series [2] of 25.1 µg/mL (≈ 77.9 µM).

Take `Cc1cn(C(=O)NCc2ccc(-c3ccccc3)cc2)c(OCCN2CCN(C)CC2)n1` [Example 203, N-(Biphenyl-4-ylmethyl)-4-methyl-2-(2-(4-methylpiperazin-1-yl)ethoxy)-1H-imidazole-1-carboxamide]: the IC50 in series [1] is less than 200 nM. Moreover, in series [2], the solubility is 30 µg/mL (≈ 69.2 µM).

As for `CC(C)(C)c1cn(C(=O)NCCc2cccnc2)cn1` [Example 20, 4-tert-Butyl-N-(2-(pyridin-3-yl)ethyl)-1H-imidazole-1-carboxamide], in series [1], the IC50 was 200 to 1000 nM. Moreover, the solubility in series [2] was 0.2 µg/mL (≈ 0.734 µM).

`CN(C)Cc1ccc(-c2cn(C(=O)NCCc3ccccc3)cn2)cc1` [Example 34, 4-(4-((Dimethylamino)methyl)phenyl)-N-phenethyl-1H-imidazole-1-carboxamide]: in series [1], the IC50 is less than 200 nM. In series [2], this compound gave a solubility of 25.6 µg/mL (≈ 73.5 µM).

Consider `COc1nc(C)c(C)n1C(=O)NCCc1ccccc1` [Example 170, 2-Methoxy-4,5-dimethyl-N-phenethyl-1H-imidazole-1-carboxamide], for which the IC50 in series [1] was less than 200 nM. In series [2], the concentration in solution (solubility) came to 10 µg/mL (≈ 36.6 µM).

On to `COc1nc(C)cn1C(=O)NCCC1CCCC1(F)F` (stereo not shown) [Example 167, N-(2-(2,2-Difluorocyclopentyl)ethyl)-2-methoxy-4-methyl-1H-imidazole-1-carboxamide], for which the IC50 in series [1] is less than 200 nM. In series [2], this compound yielded a solubility of 32 µg/mL (≈ 111 µM).

For the compound `COc1nc(C2CCOC2)cn1C(=O)NCCCCC1CC1` (stereo not shown) [Example 131, N-(4-Cyclopropylbutyl)-2-methoxy-4-(tetrahydrofuran-3-yl)-1H-imidazole-1-carboxamide], the IC50 in series [1] was 200 to 1000 nM. This compound also had a solubility in series [2] of 23 µg/mL (≈ 74.8 µM).

As for `CCOc1nc(-c2cccnc2)cn1C(=O)NCCC(C)C` [Example 67, 2-Ethoxy-N-iso-pentyl-4-(pyridin-3-yl)-1H-imidazole-1-carboxamide], the IC50 in series [1] was greater than 1000 nM. In series [2], this compound returned a solubility of 8 µg/mL (≈ 26.5 µM).

`COc1nc(C)cn1C(=O)NCCc1ccccc1` [Example 143, 2-Methoxy-4-methyl-N-phenethyl-1H-imidazole-1-carboxamide]: the IC50 in series [1] was less than 200 nM. The compound further showed a solubility in series [2] of 27 µg/mL (≈ 104 µM).

In the case of `O=C(NCCCC1CC1)n1cnc(-c2cccnc2)c1` [Example 32, N-(3-Cyclopropylpropyl)-4-(pyridin-3-yl)-1H-imidazole-1-carboxamide], the IC50 in series [1] fell in the range of 200 to 1000 nM. In series [2], this compound showed a solubility of 27.6 µg/mL (≈ 102 µM).

Regarding `O=C(NCCCc1ccccc1)n1cnc(-c2ccccc2)c1` [Example 9], the concentration for half-maximal inhibition (IC50) in series [1] is less than 200 nM. For the same compound, the solubility in series [2] turned out to be 1.3 µg/mL (≈ 4.26 µM).

For `Cc1cn(C(=O)NCCOc2ccccc2)c(OCCN2CCN(C)CC2)n1` [Example 199, 4-Methyl-2-(2-(4-methylpiperazin-1-yl)ethoxy)-N-(2-phenoxyethyl)-1H-imidazole-1-carboxamide], the IC50 in series [1] is less than 200 nM. This compound also registered a solubility in series [2] of 50 µg/mL (≈ 129 µM).

With `COc1nc(C(C)(C)C)cn1C(=O)NCCCC(C)C` [Example 102, 4-(tert-Butyl)-2-methoxy-N-(4-methylpentyl)-1H-imidazole-1-carboxamide], in series [1], the IC50 is less than 200 nM. The compound further came in with a solubility in series [2] of 10 µg/mL (≈ 35.5 µM).

With `COc1nc(C2CCOC2)cn1C(=O)NCCC(C)C` (stereo not shown) [Example 85, N-iso-Pentyl-2-methoxy-4-(tetrahydrofuran-3-yl)-1H-imidazole-1-carboxamide], in series [1], the IC50 was in the range of 200 to 1000 nM. In series [2], this compound had a solubility of 28 µg/mL (≈ 99.5 µM).

As for `Cc1ccc(-c2cn(C(=O)NCCC(C)C)cn2)cn1` [Example 37, N-iso-Pentyl-4-(6-methylpyridin-3-yl)-1H-imidazole-1-carboxamide], in series [1], the IC50 was greater than 1000 nM. Moreover, the solubility in series [2] worked out at 7.3 µg/mL (≈ 26.8 µM).

Turning to `COc1nccn1C(=O)NCCCC1(C(F)(F)F)CC1` [Example 137, 2-Methoxy-N-(3-(1-(trifluoromethyl)cyclopropyl)propyl)-1H-imidazole-1-carboxamide], the IC50 in series [1] is less than 200 nM. In series [2], this compound yielded a solubility of 29 µg/mL (≈ 99.6 µM).

For the compound `CC(C)CCNC(=O)n1cc(C(C)(C)C)nc1Oc1ccc(F)cc1` [Example 116, 4-tert-Butyl-2-(4-fluorophenoxy)-N-iso-pentyl-1H-imidazole-1-carboxamide], in series [1], the IC50 was less than 200 nM. The amount in solution in series [2] (solubility) came to 1 µg/mL (≈ 2.88 µM).

As for `O=C(NCCC1CC1)n1cnc(-c2cscn2)c1` [Example 69, N-(2-Cyclopropylethyl)-4-(thiazol-4-yl)-1H-imidazole-1-carboxamide], the IC50 in series [1] fell in the range of 200 to 1000 nM. Further, the concentration in solution in series [2] (solubility) was 32 µg/mL (≈ 122 µM).

As to `COc1nc(-c2cccnc2)cn1C(=O)NCCC1CC1` [Example 53, N-(2-Cyclopropylethyl)-2-methoxy-4-(pyridin-3-yl)-1H-imidazole-1-carboxamide], the IC50 in series [1] was greater than 1000 nM. Also, the concentration in solution in series [2] (solubility) came to 26.5 µg/mL (≈ 92.5 µM).

For the compound `CCOc1nc(-c2cccnc2)cn1C(=O)NCCC1CC1` [Example 64, N-(2-Cyclopropylethyl)-2-ethoxy-4-(pyridin-3-yl)-1H-imidazole-1-carboxamide], the IC50 in series [1] is greater than 1000 nM. The solubility in series [2] is 16.8 µg/mL (≈ 55.9 µM).

With `COc1nc(C)cn1C(=O)NCCCC(C)C` [Example 142, 2-Methoxy-4-methyl-N-(4-methylpentyl)-1H-imidazole-1-carboxamide], in series [1], the IC50 fell in the range of 200 to 1000 nM. The compound further yielded a solubility in series [2] of 22 µg/mL (≈ 91.9 µM).

Take `CC(C)CCNC(=O)n1ccnc1OC(C)C` [Example 122, N-iso-Pentyl-2-iso-propoxy-1H-imidazole-1-carboxamide]: the IC50 in series [1] fell in the range of 200 to 1000 nM. In series [2], this compound displayed a solubility of 21 µg/mL (≈ 87.7 µM).

Regarding `COc1ccc(-c2cn(C(=O)NCCC3CC3)cn2)cn1` [Example 70, N-(2-Cyclopropylethyl)-4-(6-methoxypyridin-3-yl)-1H-imidazole-1-carboxamide], the IC50 in series [1] was in the range of 200 to 1000 nM. In addition, the solubility in series [2] was 1.3 µg/mL (≈ 4.54 µM).

Regarding `Cc1cn(C(=O)NC2CCC(F)(F)CC2)c(Oc2ccc(C#N)cc2)n1` [Example 163, 2-(4-Cyanophenoxy)-N-(4,4-difluorocyclohexyl)-4-methyl-1H-imidazole-1-carboxamide], in series [1], the IC50 was less than 200 nM. The concentration in solution in series [2] (solubility) was 13 µg/mL (≈ 36.1 µM).

As for `COc1nc(C2CCOC2)cn1C(=O)NCCCc1ccccc1` (stereo not shown) [Example 118, 2-Methoxy-N-(3-phenylpropyl)-4-(tetrahydrofuran-3-yl)-1H-imidazole-1-carboxamide], in series [1], the IC50 is less than 200 nM. For the same compound, the concentration in solution in series [2] (solubility) came to 17 µg/mL (≈ 51.6 µM).

As to `CC(C)CCNC(=O)n1cnc(-c2cccnc2)c1` [Example 21, N-iso-Pentyl-4-(pyridin-3-yl)-1H-imidazole-1-carboxamide], in series [1], the IC50 fell in the range of 200 to 1000 nM. For the same compound, in series [2], the solubility was found to be 21.5 µg/mL (≈ 83.2 µM).

For `O=C(NCCOc1ccccc1)n1cnc(-c2cccnc2)c1` [Example 17, N-(2-Phenoxyethyl)-4-(pyridin-3-yl)-1H-imidazole-1-carboxamide], the IC50 in series [1] is less than 200 nM. Further, the solubility in series [2] worked out at 2.6 µg/mL (≈ 8.43 µM).

Consider `COc1nc(C2CCCC2)cn1C(=O)NCCCOc1ccccc1` [Example 105, 4-Cyclopentyl-2-methoxy-N-(3-phenoxypropyl)-1H-imidazole-1-carboxamide], for which the IC50 in series [1] is less than 200 nM. Besides, the concentration in solution in series [2] (solubility) came to 14 µg/mL (≈ 40.8 µM).

Turning to `COc1nc(C)cn1C(=O)NCCCOC(F)(F)F` [Example 151, 2-Methoxy-4-methyl-N-(3-(trifluoromethoxy)-propyl)-1H-imidazole-1-carboxamide], the IC50 in series [1] was in the range of 200 to 1000 nM. For the same compound, the concentration in solution in series [2] (solubility) came to 30 µg/mL (≈ 107 µM).

As to `CC(C)CCNC(=O)n1cnc(-c2ccccc2)c1` [Example 27, N-iso-Pentyl-4-phenyl-1H-imidazole-1-carboxamide], the 50% inhibitory concentration (IC50) in series [1] was less than 200 nM. Further, the solubility in series [2] came to 3.1 µg/mL (≈ 12 µM).

For `COc1nc(C2CCCC2)cn1C(=O)NC1CC1` [Example 126, 4-Cyclopentyl-N-cyclopropyl-2-methoxy-1H-imidazole-1-carboxamide], the IC50 in series [1] was in the range of 200 to 1000 nM. Moreover, the solubility in series [2] was found to be 13 µg/mL (≈ 52.1 µM).

`Cc1cn(C(=O)NC2CCC(F)(F)CC2)c(Oc2cccc(C#N)c2)n1` [Example 164, 2-(3-Cyanophenoxy)-N-(4,4-difluorocyclohexyl)-4-methyl-1H-imidazole-1-carboxamide]: in series [1], the IC50 is less than 200 nM. In series [2], this compound yielded a solubility of 8 µg/mL (≈ 22.2 µM).
